Tested on: anti-PCP antibody from ATCC HB 9198
Type: binding, rat
Conditions: for IC50: read-out: Molar IC50

## Oc1ccc(Cl)c(Cl)c1Cl [2,3,4-Trichlorophenol]
  Percent Cross Reactivity With PCP: 0.5%

## Oc1c(Cl)c(Cl)cc(Cl)c1Cl [2,3,5,6-Tetrachlorophenol]
  Percent Cross Reactivity With PCP: 42%

## Oc1cc(Cl)cc(Cl)c1Cl [2,3,5-Trichlorophenol]
  Percent Cross Reactivity With PCP: 0.5%

## Oc1c(Cl)ccc(Cl)c1Cl [2,3,6-Trichlorophenol]
  Percent Cross Reactivity With PCP: 8.8%

## Oc1cccc(Cl)c1Cl [2,3-Dichlorophenol]
  Percent Cross Reactivity With PCP: 0%
  IC50: > 1 mM

## Oc1ccc(Cl)cc1Cl [2,4-Dichlorophenol]
  Percent Cross Reactivity With PCP: 0%
  IC50: > 1 mM

## Oc1cc(Cl)ccc1Cl [2,5-Dichlorophenol]
  Percent Cross Reactivity With PCP: 0%
  IC50: > 1 mM

## Oc1c(Cl)cccc1Cl [2,6-Dichlorophenol]
  Percent Cross Reactivity With PCP: 1.8%

## Oc1ccc(Cl)c(Cl)c1 [3,4-Dichlorophenol]
  Percent Cross Reactivity With PCP: 0%
  IC50: > 1 mM

## Oc1cc(Cl)cc(Cl)c1 [3,5-Dichlorophenol]
  Percent Cross Reactivity With PCP: 0%
  IC50: > 1 mM

## Oc1ccc(Cl)cc1 [4-Chlorophenol]
  Percent Cross Reactivity With PCP: 0%
  IC50: > 1 mM

## Clc1cc(Cl)c(Cl)c(Cl)c1Cl [Pentachlorobenzene]
  Percent Cross Reactivity With PCP: 0%
  reaction with the antipentachlorophenol antibody: fails to react
  IC50: > 1 mM

## Oc1ccccc1 [Phenol]
  Percent Cross Reactivity With PCP: 0%
  IC50: > 1 mM

## Oc1c(Cl)c(Cl)c(O)c(Cl)c1Cl [Tetrachlorohydroquinone]
  Percent Cross Reactivity With PCP: 0.8%

Reference: patent EP0260829A2 (priority 1986, dated 1988)
